Measurements as given in patent publication US20090239896A1, “AZAINDOLE COMPOUNDS AND USE THEREOF AS PHOSPHOLIPASE-A2 INHIBITORS” (priority 2005, published 2009).
Each block holds one molecule with its values, some of them ahead of it.

Experiments:
human PLA2 IB enzyme = human PLA2 IB enzyme (Homo sapiens, UniProt P04054); details: pyrene substrate release from vesicles; Singer, Ghomashchi et al. 2002; read-out: IC50 value versus the human PLA2 IB enzyme; cited from earlier work
Caco-2 monolayers = assay: in-vitro Caco-2 permeability study (Example 6B); type: in vitro ADME, human
Description: The culture medium was refreshed every 48 hours.
Papp=(dQ/dt)X(1/C0)X(1/A)

stability at low pH = type: physicochemical; details: predicted to survive passage through the stomach
[1] = test system: C57BL/6 wild-type mice on high fat/high sucrose diabetogenic diet; assay: in-vivo evaluation in mice on high fat/high sucrose diabetogenic diet (Example 5); parameters: species or system mouse; details: for fasting glucose levels: low dose (25 mg/kg/day)
Description: Briefly, four groups were set up, each having six mice. Three of the groups included six wild-type PLA2 (+/+) mice in each group (eighteen mice total), and one of the groups included six genetically deficient PLA2 (−/−) mice. One of the wild-type groups was used as a wild-type control group, and was not treated with ILY-4001. The other two wild-type groups were treated with ILY-4001—one group at a lower dose (indicated as “L” in Table 1) of 25 mg/kg/day, and the other at a higher dose (indicated as “H” in Table 1) of 90 mg/kg/day. The group comprising the PLA2 (−/−) mice was used as a positive control group.
The experimental protocol used in this study was as follows. The four groups of mice, including wild type and isogenic PLA2 (−/−) C57BL/J mice were acclimated for three days on a low fat/low carbohydrate diet. After the three day acclimation phase, the animals were ? and serum samples taken to establish baseline plasma cholesterol, triglyceride, and glucose levels, along with baseline body weight. The mice in each of the treatment groups were then fed a high fat/high sucrose diabetogenic diet (Research Diets D12331). 1000 g of the high fat/high sucrose D12331 diet was composed of casein (228 g), DL-methionine (2 g), maltodextrin 10 (170 g), sucrose (175 g), soybean oil (25 g), hydrogenated coconut oil (333.5 g), mineral mix S10001 (40 g), sodium bicarbonate (10.5 g), potassium citrate (4 g), vitamin mix V10001 (10 g), and choline bitartrate (2 g). This diet was supplemented with ILY-4001 treatments such that the average daily dose of the compound ingested by a 25 g mouse was: 0 mg/kg/day (wild-type control group and PLA2 (−/−) control group); 25 mg/kg/day (low-dose wild-type treatment group), or 90 mg/kg/day (high-dose wild-type treatment group). The animals were maintained on the high fat/high sucrose diet, with the designated ILY-4001 supplementation, for a period of ten weeks.
Body weight measurements were taken for all animals in all treatment and control groups at the beginning of the treatment period and at 4 weeks and 10 weeks after initiation of the study. (See Example 5A). Blood draws were also taken at the beginning of the treatment period (baseline) and at 4 weeks and 10 weeks after initiation of the study, in order to determine fasting glucose (See Example 5B). Cholesterol and triglyceride levels were determined from blood draws taken at the beginning of the treatment (baseline) and at ten weeks. (See Example 5C).
In the study generally described above in Example 5, body weight measurements were taken for all animals in all treatment and control groups at the beginning of the treatment period and at 4 weeks and 10 weeks after initiation of the study.
In the study generally described above in Example 5, blood draws were taken at the beginning of the treatment period (baseline) and at 4 weeks and 10 weeks after initiation of the study, in order to determine fasting glucose.
In the study generally described above in Example 5, blood draws were taken at the beginning of the treatment period (baseline) and at 10 weeks after initiation of the study, in order to determine cholesterol and triglyceride levels.

[2] = pharmokinetic study of ILY-4001, IV and oral (Example 6C); type: in vivo, mice; details: 30 mg/kg oral
Description: This example evaluated the bioavailability of ILY-4001 [2-(3-(2-amino-2-oxoacetyl)-1-(biphenyl-2-ylmethyl)-2-methyl-1H-indol-4-yloxy)acetic acid], alternatively referred to herein as methyl indoxam. Specifically, a pharmokinetic study was conducted to determine the fraction of unchanged ILY-4001 in systemic circulation following administration.
Bioavailability was calculated as a ratio of AUC-oral/AUC-intravenous (IV). To determine this ratio, a first set of subject animals were given a measured intravenous (IV) dose of ILY-4001, followed by a determination of ILY-4001 levels in the blood at various time points after administration (e.g., 5 minutes through 24 hours). Another second set of animals was similarly dosed using oral administration, with blood levels of ILY-4001 determined at various time points after administration (e.g., 30 minutes through 24 hours). The level of ILY-4001 in systemic circulation were determined by generally accepted methods (for example as described in Evans, G., A Handbook of Bioanalysis and Drug Metabolism. Boca Raton, CRC Press (2004)). Specifically, […]/mass spectrometry/mass spectrometry (LC/MS/MS) analytical methods were used to quantitate plasma concentrations of ILY-4001 after oral and intravenous administration. Pharmacokinetic parameters that were measured include Cmax, AUC, tmax, t1/2, and F (bioavailability). […]

mouse PLA2 IB enzyme = mouse PLA2 IB enzyme (Mus musculus, UniProt Q9Z0Y2); details: pyrene substrate release from vesicles; Singer, Ghomashchi et al. 2002; read-out: IC50 value versus the mouse PLA2 IB enzyme; cited from earlier work
Chain of mouse PLA2 IB enzyme (Q9Z0Y2 23-146): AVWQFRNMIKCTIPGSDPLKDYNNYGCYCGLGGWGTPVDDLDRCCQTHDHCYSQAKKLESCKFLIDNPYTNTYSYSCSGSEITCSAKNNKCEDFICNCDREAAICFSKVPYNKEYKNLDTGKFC

[3] = low and high doses (25 and 90 mg/kg/day), 10 weeks

Chain of human PLA2 IB enzyme (P04054 23-148): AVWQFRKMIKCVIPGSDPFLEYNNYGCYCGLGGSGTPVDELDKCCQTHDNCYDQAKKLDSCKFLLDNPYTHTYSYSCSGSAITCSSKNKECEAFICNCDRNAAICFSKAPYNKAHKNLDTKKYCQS

Molecule: Cc1c(C(=O)C(N)=O)c2c(OCC(=O)O)cccc2n1Cc1ccccc1-c1ccccc1 [ILY-4001, 2-(3-(2-amino-2-oxoacetyl)-1-(biphenyl-2-ylmethyl)-2-methyl-1H-indol-4-yloxy)acetic acid]
IC50 (human PLA2 IB enzyme): ~200 nM | absorption from the GI lumen (Caco-2 monolayers; based on Caco-2 assays and pharmokinetic studies): relatively low | stability at low pH (stability at low pH): stable | body weight gain compared to wild-type control group ([1]; 25 mg/kg/d and 90 mg/kg/d in diet, week 4 and week 10): significantly reduced | plasma levels of cholesterol [1, 3]: substantially reduced | plasma levels of triglycerides [1, 3]: substantially reduced | fasting glucose levels ([1]; week four): moderately beneficial effect | fasting glucose levels ([1]; week ten): a beneficial effect was not observed | level of non-absorption from the GI tract into systemic circulation [2]: ~72% | IC50 (mouse PLA2 IB enzyme): ~150 nM

apparent permeability (Caco-2 monolayers; Caco-2): around 2.82×10^−7+/−0.37×10^−7 cm/s
Molecule: Lucifer Yellow
